# Source: US7157495B2, “Hexahydrofuro[2,3-B]furan-3-YL-N-{3-[(1,3-benzodioxol-5-ylsulfonyl)(isobutyl)amino]-1-benzyl-2-hydroxypropyl}carbamate as retroviral protease inhibitor” (Tibotec Pharmaceuticals, Ltd., priority 1999, dated 2007)
# Test system: HIV strain r13020
# Assay: Antiviral spectrum, protease inhibitor resistant strain
# Assay type: cell-based
# Conditions: Human immunodeficiency virus 1, strain r13020; L10I, K20R, M36I, 154V, A71V, V82T, 184V
# Experimental: (§1) HIV- or mock-infected MT4 cells were incubated for five days in the presence of various concentrations of the inhibitor. At the end of the incubation period, all HIV-infected cells have been killed by the replicating virus in the control cultures in the absence of any inhibitor. Cell viability is measured by measuring the concentration of MTT, a yellow, water soluble tetrazolium dye that is converted to a purple, water insoluble formazan in the mitochondria of living cells only. Upon solubilization of the resulting formazan crystals with isopropanol, the absorbance of the solution is monitored at 540 nm. The values correlate directly to the number of living cells remaining in the culture at the completion of the five day incubation. The inhibitory activity of the compound was monitored on the virus-infected cells and was expressed as IC50 and IC90. These values represent the amount of the compound required to protect 50% and 90%, respectively, of the cells from the cytopathogenic effect of the virus. The toxicity of the compound was measured on the mock-infected cells and was expressed as CC50, which represents the concentration of compound required to inhibit the growth of the cells by 50%. The select index (SI) (ratio CC50/IC50) is an indication of the selectivity of the anti-HIV activity of the inhibitor.
# (§2) Because of the increasing emergence of drug resistant HIV strains, compound 13 and compound 14 were tested for its potency against HIV strains harbouring several mutations. These mutations are associated with resistance to protease inhibitors and result in viruses that show various degrees of phenotypic cross-resistance to five of the currently commercially available drugs (Saquinavir, Ritonavir, Nelfinavir, Indinavir and Amprenavir).
row,SMILES,IC50
1,"CC(C)c1nc(CN(C)C(=O)N[C@H](C(=O)N[C@@H](Cc2ccccc2)C[C@H](O)[C@H](Cc2ccccc2)NC(=O)OCc2cncs2)C(C)C)cs1 [RIT, Ritonavir]",9.28 µM
2,"Cc1c(O)cccc1C(=O)N[C@@H](CSc1ccccc1)[C@H](O)CN1C[C@H]2CCCC[C@H]2C[C@H]1C(=O)NC(C)(C)C [NEL, Nelfinavir]",3.75 µM

# Test system: HIV strain r13022
# Assay: as above
# Assay type: cell-based
# Conditions: Human immunodeficiency virus 1, strain r13022; K20R, M36I, M46I/M, 154V, L63P, A71V/I, V82T, L90M
# Experimental: as §1, §2
row,SMILES,IC50
1,"CC(C)c1nc(CN(C)C(=O)N[C@H](C(=O)N[C@@H](Cc2ccccc2)C[C@H](O)[C@H](Cc2ccccc2)NC(=O)OCc2cncs2)C(C)C)cs1 [RIT, Ritonavir]",> 10 µM
2,"Cc1c(O)cccc1C(=O)N[C@@H](CSc1ccccc1)[C@H](O)CN1C[C@H]2CCCC[C@H]2C[C@H]1C(=O)NC(C)(C)C [NEL, Nelfinavir]",4.03 µM

# Test system: HIV strain r13025
# Assay: as above
# Assay type: cell-based
# Conditions: Human immunodeficiency virus 1, strain r13025; L10I, M46I, L63P, A71V, I84V
# Experimental: as §1, §2
row,SMILES,IC50
1,"CC(C)c1nc(CN(C)C(=O)N[C@H](C(=O)N[C@@H](Cc2ccccc2)C[C@H](O)[C@H](Cc2ccccc2)NC(=O)OCc2cncs2)C(C)C)cs1 [RIT, Ritonavir]",2.24 µM
2,"Cc1c(O)cccc1C(=O)N[C@@H](CSc1ccccc1)[C@H](O)CN1C[C@H]2CCCC[C@H]2C[C@H]1C(=O)NC(C)(C)C [NEL, Nelfinavir]",9.13 µM

# Test system: HIV strain r13034
# Assay: as above
# Assay type: cell-based
# Conditions: Human immunodeficiency virus 1, strain r13034; L10I, M36I, I54V, L63P, A71V, I84V
# Experimental: as §1, §2
row,SMILES,IC50
1,"CC(C)c1nc(CN(C)C(=O)N[C@H](C(=O)N[C@@H](Cc2ccccc2)C[C@H](O)[C@H](Cc2ccccc2)NC(=O)OCc2cncs2)C(C)C)cs1 [RIT, Ritonavir]",> 10 µM
2,"Cc1c(O)cccc1C(=O)N[C@@H](CSc1ccccc1)[C@H](O)CN1C[C@H]2CCCC[C@H]2C[C@H]1C(=O)NC(C)(C)C [NEL, Nelfinavir]",1.99 µM

# Test system: HIV strain r13027
# Assay: as above
# Assay type: cell-based
# Conditions: Human immunodeficiency virus 1, strain r13027; L10M/I, K20R, M36I, L63P, A71V, G73S, V77I, I84V, L90M
# Experimental: as §1, §2
row,SMILES,IC50
1,"CC(C)c1nc(CN(C)C(=O)N[C@H](C(=O)N[C@@H](Cc2ccccc2)C[C@H](O)[C@H](Cc2ccccc2)NC(=O)OCc2cncs2)C(C)C)cs1 [RIT, Ritonavir]",3.14 µM
2,"Cc1c(O)cccc1C(=O)N[C@@H](CSc1ccccc1)[C@H](O)CN1C[C@H]2CCCC[C@H]2C[C@H]1C(=O)NC(C)(C)C [NEL, Nelfinavir]",3.2 µM

# Test system: HIV strain r13037
# Assay: as above
# Assay type: cell-based
# Conditions: Human immunodeficiency virus 1, strain r13037; L10I, M46I, I54V, L63P, A71T, V77I, V82A, L90M
# Experimental: as §1, §2
row,SMILES,IC50
1,"CC(C)c1nc(CN(C)C(=O)N[C@H](C(=O)N[C@@H](Cc2ccccc2)C[C@H](O)[C@H](Cc2ccccc2)NC(=O)OCc2cncs2)C(C)C)cs1 [RIT, Ritonavir]",2.72 µM
2,"Cc1c(O)cccc1C(=O)N[C@@H](CSc1ccccc1)[C@H](O)CN1C[C@H]2CCCC[C@H]2C[C@H]1C(=O)NC(C)(C)C [NEL, Nelfinavir]",0.656 µM

# Test system: HIV strain r13030
# Assay: as above
# Assay type: cell-based
# Conditions: Human immunodeficiency virus 1, strain r13030; L10V/I, M36I, I54V, L63P, A71V, V82T, L90M
# Experimental: as §1, §2
row,SMILES,IC50
1,"CC(C)c1nc(CN(C)C(=O)N[C@H](C(=O)N[C@@H](Cc2ccccc2)C[C@H](O)[C@H](Cc2ccccc2)NC(=O)OCc2cncs2)C(C)C)cs1 [RIT, Ritonavir]",2.99 µM
2,"Cc1c(O)cccc1C(=O)N[C@@H](CSc1ccccc1)[C@H](O)CN1C[C@H]2CCCC[C@H]2C[C@H]1C(=O)NC(C)(C)C [NEL, Nelfinavir]",0.995 µM

# Test system: HIV strain r13024
# Assay: as above
# Assay type: cell-based
# Conditions: Human immunodeficiency virus 1, strain r13024; L10I, M36I, L63P, A71V, G73S, I84V, L90M
# Experimental: as §1, §2
row,SMILES,IC50
1,"CC(C)c1nc(CN(C)C(=O)N[C@H](C(=O)N[C@@H](Cc2ccccc2)C[C@H](O)[C@H](Cc2ccccc2)NC(=O)OCc2cncs2)C(C)C)cs1 [RIT, Ritonavir]",2.85 µM
2,"Cc1c(O)cccc1C(=O)N[C@@H](CSc1ccccc1)[C@H](O)CN1C[C@H]2CCCC[C@H]2C[C@H]1C(=O)NC(C)(C)C [NEL, Nelfinavir]",3.26 µM

# Test system: HIV strain r13026
# Assay: as above
# Assay type: cell-based
# Conditions: Human immunodeficiency virus 1, strain r13026; L10I, M46I, I54V, L63P, A71V, V82T, I84V
# Experimental: as §1, §2
row,SMILES,IC50
1,"CC(C)c1nc(CN(C)C(=O)N[C@H](C(=O)N[C@@H](Cc2ccccc2)C[C@H](O)[C@H](Cc2ccccc2)NC(=O)OCc2cncs2)C(C)C)cs1 [RIT, Ritonavir]",> 10 µM
2,"Cc1c(O)cccc1C(=O)N[C@@H](CSc1ccccc1)[C@H](O)CN1C[C@H]2CCCC[C@H]2C[C@H]1C(=O)NC(C)(C)C [NEL, Nelfinavir]",1.22 µM

# Test system: HIV strain r13036
# Assay: as above
# Assay type: cell-based
# Conditions: Human immunodeficiency virus 1, strain r13036; L10I, L63P, A71V, G73S, L90M
# Experimental: as §1, §2
row,SMILES,IC50
1,"CC(C)c1nc(CN(C)C(=O)N[C@H](C(=O)N[C@@H](Cc2ccccc2)C[C@H](O)[C@H](Cc2ccccc2)NC(=O)OCc2cncs2)C(C)C)cs1 [RIT, Ritonavir]",2.83 µM
2,"Cc1c(O)cccc1C(=O)N[C@@H](CSc1ccccc1)[C@H](O)CN1C[C@H]2CCCC[C@H]2C[C@H]1C(=O)NC(C)(C)C [NEL, Nelfinavir]",3.25 µM

# Test system: HIV strain r13031
# Assay: as above
# Assay type: cell-based
# Conditions: Human immunodeficiency virus 1, strain r13031; G48V, I54V, V77I, V82A, L90M/L
# Experimental: as §1, §2
row,SMILES,IC50
1,"CC(C)c1nc(CN(C)C(=O)N[C@H](C(=O)N[C@@H](Cc2ccccc2)C[C@H](O)[C@H](Cc2ccccc2)NC(=O)OCc2cncs2)C(C)C)cs1 [RIT, Ritonavir]",0.856 µM
2,"Cc1c(O)cccc1C(=O)N[C@@H](CSc1ccccc1)[C@H](O)CN1C[C@H]2CCCC[C@H]2C[C@H]1C(=O)NC(C)(C)C [NEL, Nelfinavir]",0.497 µM

# Test system: HIV strain r13021
# Assay: as above
# Assay type: cell-based
# Conditions: Human immunodeficiency virus 1, strain r13021; L10I, K20R, L24I, M36I, I54V, L63P, A71V, V82T, I84V
# Experimental: as §1, §2
row,SMILES,IC50
1,"CC(C)c1nc(CN(C)C(=O)N[C@H](C(=O)N[C@@H](Cc2ccccc2)C[C@H](O)[C@H](Cc2ccccc2)NC(=O)OCc2cncs2)C(C)C)cs1 [RIT, Ritonavir]",> 10 µM
2,"Cc1c(O)cccc1C(=O)N[C@@H](CSc1ccccc1)[C@H](O)CN1C[C@H]2CCCC[C@H]2C[C@H]1C(=O)NC(C)(C)C [NEL, Nelfinavir]",4.1 µM

# Test system: HIV strain r13029
# Assay: as above
# Assay type: cell-based
# Conditions: Human immunodeficiency virus 1, strain r13029; L10I/L, M36I, M46L, L63P, A71V, I84V, N88D, L90M
# Experimental: as §1, §2
row,SMILES,IC50
1,"CC(C)c1nc(CN(C)C(=O)N[C@H](C(=O)N[C@@H](Cc2ccccc2)C[C@H](O)[C@H](Cc2ccccc2)NC(=O)OCc2cncs2)C(C)C)cs1 [RIT, Ritonavir]",3.6 µM
2,"Cc1c(O)cccc1C(=O)N[C@@H](CSc1ccccc1)[C@H](O)CN1C[C@H]2CCCC[C@H]2C[C@H]1C(=O)NC(C)(C)C [NEL, Nelfinavir]",3.79 µM

# Test system: HIV strain r13023
# Assay: as above
# Assay type: cell-based
# Conditions: Human immunodeficiency virus 1, strain r13023; L10I, M36I/M, I54V/I, L63P, A71V, G73S, I84V, L90M
# Experimental: as §1, §2
row,SMILES,IC50
1,"CC(C)c1nc(CN(C)C(=O)N[C@H](C(=O)N[C@@H](Cc2ccccc2)C[C@H](O)[C@H](Cc2ccccc2)NC(=O)OCc2cncs2)C(C)C)cs1 [RIT, Ritonavir]",3.82 µM
2,"Cc1c(O)cccc1C(=O)N[C@@H](CSc1ccccc1)[C@H](O)CN1C[C@H]2CCCC[C@H]2C[C@H]1C(=O)NC(C)(C)C [NEL, Nelfinavir]",1.02 µM

# Test system: HIV strain r13035
# Assay: as above
# Assay type: cell-based
# Conditions: Human immunodeficiency virus 1, strain r13035; D30N, L63P, V77I, N88D
# Experimental: as §1, §2
row,SMILES,IC50
1,"CC(C)c1nc(CN(C)C(=O)N[C@H](C(=O)N[C@@H](Cc2ccccc2)C[C@H](O)[C@H](Cc2ccccc2)NC(=O)OCc2cncs2)C(C)C)cs1 [RIT, Ritonavir]",0.0311 µM
2,"Cc1c(O)cccc1C(=O)N[C@@H](CSc1ccccc1)[C@H](O)CN1C[C@H]2CCCC[C@H]2C[C@H]1C(=O)NC(C)(C)C [NEL, Nelfinavir]",0.361 µM

# Test system: HIV strain r13033
# Assay: as above
# Assay type: cell-based
# Conditions: Human immunodeficiency virus 1, strain r13033; L10I, M46L, I54V, L63P, A71V, V82A, L90M
# Experimental: as §1, §2
row,SMILES,IC50
1,"CC(C)c1nc(CN(C)C(=O)N[C@H](C(=O)N[C@@H](Cc2ccccc2)C[C@H](O)[C@H](Cc2ccccc2)NC(=O)OCc2cncs2)C(C)C)cs1 [RIT, Ritonavir]",3.47 µM
2,"Cc1c(O)cccc1C(=O)N[C@@H](CSc1ccccc1)[C@H](O)CN1C[C@H]2CCCC[C@H]2C[C@H]1C(=O)NC(C)(C)C [NEL, Nelfinavir]",1.19 µM

# Test system: HIV-1 strain LAI
# Assay: Cellular anti-HIV assay in MT4 cells (MTT)
# Assay type: cell-based
# Conditions: Human immunodeficiency virus 1, MT4, strain LAI; read-out: IC50
# Experimental: as §1
row,SMILES,IC50
1,"CC(C)c1nc(CN(C)C(=O)N[C@H](C(=O)N[C@@H](Cc2ccccc2)C[C@H](O)[C@H](Cc2ccccc2)NC(=O)OCc2cncs2)C(C)C)cs1 [RIT, Ritonavir]",0.0304 µM
2,"Cc1c(O)cccc1C(=O)N[C@@H](CSc1ccccc1)[C@H](O)CN1C[C@H]2CCCC[C@H]2C[C@H]1C(=O)NC(C)(C)C [NEL, Nelfinavir]",0.0331 µM
